What all share (assay): NCI tumour cell line growth inhibition, 48 h
For experiment [1], the system named is UO-31 renal.
The test system of experiment [2] is SR leukemia.
The subject of experiment [3] is A549 NSCLC.
Experiment [4] deals with EKVX NSCLC.
For experiment [5], the system named is SF-539 CNS.
Experiment [6] concerns OVCAR-5 ovarian.
In experiment [7] the test system is MCF7 breast.
The test system of experiment [8] is OVCAR-8 ovarian.
Experiment [9] has as its system HOP-92 NSCLC.
Experiment [10] concerns 786-0 renal.

Where “and” joins values, the source holds several entries; their conditions need not be identical. Identical values can stand only once.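 Cells were grown in 96-well plates and exposed to each compound for 48 hours at five concentrations; endpoints were interpolated linearly between bracketing concentrations, or set to the highest concentration if not reached. At the GI50, growth is halved. TGI: total growth inhibition.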

As to `N=c1ccn2c(n1)OC1C(OP(=O)(O)O)C(CO)OC12` (stereo not drawn), the TGI is greater than 100 µM in [1]; greater than 51.1 µM in experiment [2]; greater than 100 µM in [3]; greater than 100 µM in experiment [4]; greater than 100 µM in experiment [5]; greater than 100 µM in experiment [6]. Besides, the TGI in [7], in experiment [8], in experiment [9] and in experiment [10] was greater than 100 µM each time.
With `NC1=NC(=O)N2CC12` (stereo not drawn), the GI50 in experiment [1] is 163 µM; in experiment [2], 10.8 µM and 14.6 µM; in experiment [3], 890 µM; in experiment [4] it was 123 µM; in experiment [6], 170 µM; in experiment [7] it was 137 µM. Also, the GI50 in [8] is 141 µM; in experiment [9], 70.8 µM; in [10] it was 160 µM. Besides, the TGI is > 100 µM and 605 µM in experiment [1]; > 100 µM and 34.8 µM and 73.9 µM in experiment [2]; > 100 µM and 3450 µM in experiment [3]; > 100 µM and 603 µM in [4]; > 100 µM and 206 µM in experiment [5]; 528 µM in experiment [6]. The TGI in experiment [7] is 768 µM; in experiment [8] it was > 100 µM and 5000 µM; in experiment [9], > 100 µM and 173 µM; in experiment [10], > 100 µM and 506 µM.
For `C/C(=C\c1ccn(-c2ccc(N)c(C(F)(F)F)c2)n1)[C@@H]1C[C@@H]2O[C@]2(C)CCC[C@H](C)[C@H](O)[C@@H](C)C(=O)C(C)(C)[C@@H](O)CC(=O)O1`, the GI50 was 0.055 µM in experiment [1]; 0.00813 µM in [2]; less than 0.0116 µM in experiment [3]; 0.344 µM in [4]; 0.00984 µM in experiment [5]; 0.025 µM in experiment [6]. In addition, the GI50 in experiment [7] was 0.00385 µM; in experiment [8], 0.0177 µM; in [9], 0.0161 µM; in experiment [10], 0.0175 µM. Moreover, the TGI in experiment [1] was greater than 32.5 µM; in experiment [2], 8.64 µM; in experiment [3] it was greater than 32.5 µM; in experiment [4], greater than 32.5 µM; in experiment [5], 0.593 µM; in experiment [6] it was greater than 26.1 µM. For the same compound, the TGI is greater than 16 µM in experiment [7], greater than 28.1 µM in [8], 23.9 µM in [9] and 12.1 µM in experiment [10].
For `CS(=O)(=O)CCNCc1ccc(-c2ccc3ncnc(Nc4ccc(OCc5ccccc5)c(C(F)(F)F)c4)c3c2)o1`, the GI50 in experiment [1] is 5.25 µM; in experiment [2], 7.47 µM; in experiment [3] it was 8.23 µM; in experiment [4], 7.87 µM; in experiment [5], 4.69 µM; in experiment [6], 4.87 µM. For the same compound, the GI50 was 4.55 µM in [7], 8.39 µM in [8], 4.9 µM in experiment [9] and 5.32 µM in experiment [10]. For the same compound, the TGI in experiment [1] was 17.2 µM; in experiment [2] it was 19.9 µM; in experiment [3], greater than 25 µM; in experiment [4] it was greater than 25 µM; in experiment [5], 9.88 µM; in [6] it was 12.5 µM. In addition, the TGI in [7] is 9.59 µM; in experiment [8], greater than 25 µM; in experiment [9] it was 20.8 µM; in [10], 11 µM.
In the case of `Nc1ccccc1NC(=O)c1ccc(CSc2nc(N3CCOCC3)c3cccn3n2)cc1`, the GI50 in [1] is 0.412 µM; in experiment [2], 0.301 µM; in [3] it was 0.977 µM; in experiment [4] it was 1.08 µM; in experiment [5] it was 0.773 µM; in [6], 0.985 µM. The GI50 is 0.335 µM in [7], 0.509 µM in [8], 0.15 µM in experiment [9] and 0.988 µM in [10]. The TGI in experiment [1] was 3.61 µM; in experiment [2], greater than 100 µM; in experiment [3], greater than 100 µM; in experiment [4] it was greater than 100 µM; in experiment [5] it was greater than 100 µM; in experiment [6], greater than 100 µM. The TGI in [7] is greater than 100 µM; in experiment [8], greater than 100 µM; in experiment [9] it was 0.991 µM; in experiment [10] it was 5.48 µM.
On to `CCOC(=O)[C@H](CSSc1ncnc2cc[nH]c12)NC(=O)[C@@H](C)c1ccc2cc(OC)ccc2c1`, for which the GI50 in experiment [1] was 0.736 µM; in experiment [2] it was 0.385 µM; in experiment [3] it was 6.36 µM; in experiment [4] it was greater than 100 µM; in experiment [5] it was 0.478 µM; in experiment [6], 0.929 µM. For the same compound, the GI50 in [7] is 0.122 µM; in experiment [8], 1.82 µM; in experiment [9] it was 0.39 µM; in experiment [10], 0.347 µM. For the same compound, the TGI in experiment [1], in experiment [2], in experiment [3], in [4], in experiment [5] and in [6] was greater than 100 µM each time. For the same compound, the TGI in experiment [7] is greater than 100 µM; in experiment [8] it was greater than 100 µM; in experiment [9] it was 41 µM; in experiment [10], greater than 100 µM.
Turning to `O=c1[nH]cnc2c(C3OC(CO)C(O)C3O)[nH]nc12` (stereo not drawn), the TGI in experiment [1], in experiment [2], in [4], in [5], in [6] and in experiment [7] was greater than 100 µM each time. Moreover, the TGI was 70.3 µM in [8] and greater than 100 µM in [10].
`O=C(O)C1C2C=CC(O2)C1C(=O)Nc1ccccc1` (stereo not drawn): the TGI in [1], in experiment [2], in [3], in experiment [4], in experiment [6] and in experiment [7] was greater than 100 µM in each case. The TGI in [8] and in experiment [10] was greater than 100 µM throughout.
Regarding `C#C[C@@]1(O)[C@@H](CO)O[C@@H](n2cc(Cl)c3c(N)ncnc32)[C@@H]1O`, the GI50 was 0.173 µM in [1]; 0.073 µM in [2]; 0.261 µM in experiment [4]; 0.324 µM in experiment [5]; 0.425 µM in experiment [6]; 0.0264 µM in experiment [7]. In addition, the GI50 in [8] is 0.0336 µM; in experiment [9], 0.454 µM; in experiment [10] it was 0.322 µM. The TGI in experiment [1] is 1.78 µM; in experiment [2] it was greater than 100 µM; in experiment [4], 2.43 µM; in [5], 1.45 µM; in [6], greater than 84.2 µM; in [7] it was 1.1 µM. The TGI in [8] was 1.48 µM; in experiment [9] it was 3.53 µM; in [10], 1.33 µM.
